Data: patent US20240287093A1, “HIGH ACTIVITY STING PROTEIN AGONIST” (ADLAI NORTYE BIOPHARMA CO., LTD., priority 2018, published 2024)

What was measured:
Assay type in all cases: cell-based
STING variants (WT) = target: T1, STING variants (WT) (Homo sapiens, UniProt Q86WV6); test: SEAP reporter assay in HEK-Blue ISG KO-STING cells transfected with STING WT variant (Method 2, 1 ng vector); conditions: compound concentration 2.5 (mM as printed); 24 h; SEAP signal ratio to 0.5% DMSO
T1 construct: host or cells: HEK-Blue ISG KO-STING cells (Invivogen, hkb-kostg)
Excerpt: (§1) Example II: STING Variants (WT & HAQ) Activation by Compounds in HEK-Blue™ ISG KO-STING Cells (Method 2)
(§2) Activation of STING can be determined using a SEAP reporter assay in HEK-Blue™ ISG KO-STING cells (Invivogen, cat #hkb-kostg) transfected with plasmids expressing STING variants (WT & HAQ) (referred to WO2017/175147A1). STING variants (WT & HAQ) vector were constructed based on STING-232H vector (Origene, RC208418). GFP vector (VT2069) was bought from Youbio. The detailed protocol as follows: HEK-Blue™ ISG KO-STING cells were harvest and seeding into 96 well plate and the final cell number was 0.8×10^5 cells/well. Transfections were prepared using Lipofectamine 2000 (Invitrogen, Cat #11668-027) following the manufacturer's instructions (Lipo2000:DNA=1:10), 20 ul of transfection suspension containing 1 ng (WT variant) or 0.0625 ng (HAQ variant) STING vector was added to cell culture plate and incubated at 37° C., 5% CO2 for 24 h. After 24 hours incubation, compounds were added at proper concentration, the final DMSO concentration was 0.5%. After 24h incubation, the supernatant was collected to detect SEAP signal using Great EscAPe SEAP chemiluminescence KIT (Clontech, cat #631738) and cells were collected to detect cell viability using CellTiter-Glo Luminescent Cell Viability Assay(Promega, cat #G7573) following the manufacturer's instructions. The data were described by the ratio of the stimulating signal of compounds to 0.5% DMSO.

STING variants (HAQ) = target: T2, STING variants (HAQ) (Homo sapiens, UniProt Q86WV6, G230A/R293Q/R71H); test: SEAP reporter assay in HEK-Blue ISG KO-STING cells transfected with STING HAQ variant (Method 2, 0.0625 ng vector); conditions: compound concentration 5 (mM as printed); 24 h; SEAP signal ratio to 0.5% DMSO
T2 construct: host or cells: HEK-Blue ISG KO-STING cells (Invivogen, hkb-kostg)
Excerpt: as §1, §2

STING = target: T3, STING (Homo sapiens, UniProt Q86WV6, G230A/H232R/R293Q/R71H); test: IFNβ release from THP1 by STING activation (hIFNβ ELISA); conditions: THP1 cells, 24 h, IFN-β in supernatant; inactive = IFNβ not detected at the maximum concentration of compounds
T3 construct: THP1 was purchased from National Collection of Authenticated Cell Cultures (Cat #TCHu 57); host or cells: THP1
How it was run: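 THP1 cells from log-phase culture, suspended at 2×10^6 cells/ml, were treated with an 8-point, 3-fold compound series (0.2% DMSO final) for 24 h at 37°C, 5% CO2. Secreted IFN-β in supernatant was quantified by human IFNβ ELISA, and EC50 was obtained by curve fitting.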

T2 sequence (Q86WV6 whole entry R71H/G230A/R293Q): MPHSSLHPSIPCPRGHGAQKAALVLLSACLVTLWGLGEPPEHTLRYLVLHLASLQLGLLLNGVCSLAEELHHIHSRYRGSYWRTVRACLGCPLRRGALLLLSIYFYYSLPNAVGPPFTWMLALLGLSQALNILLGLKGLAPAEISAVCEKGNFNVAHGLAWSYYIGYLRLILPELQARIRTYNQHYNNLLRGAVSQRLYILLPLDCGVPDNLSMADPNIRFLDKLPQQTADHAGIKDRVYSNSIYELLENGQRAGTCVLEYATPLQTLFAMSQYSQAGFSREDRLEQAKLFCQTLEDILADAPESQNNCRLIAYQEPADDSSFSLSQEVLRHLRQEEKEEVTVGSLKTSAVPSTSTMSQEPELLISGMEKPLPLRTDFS
T3 sequence (Q86WV6 whole entry R71H/G230A/H232R/R293Q): as the sequence (Q86WV6 whole entry R71H/G230A/R293Q) above, with H232R counted along it

Row | Compound | Fold change related to DMSO control, WT (STING variants (WT)) [fold] | Fold change related to DMSO control, HAQ (STING variants (HAQ)) [fold] | EC50 (STING) [µM]
1 | CCn1nc(C)c(F)c1C(=O)Nc1nc2cc(C(N)=O)cc3c2n1[C@@H](C)CCO3 [Example 63, (S)-1-(1-ethyl-4-fluoro-3-methyl-1H-pyrazole-5-carboxamido)-9-methyl-8,9-dihydro-7H-6-oxa-2,9a-diazabenzo[cd]azulene-4-carboxamide] | 2.10 | 15.19 | > 16.7
2 | CCn1nc(C)c(F)c1C(=O)Nc1nc2cc(C(N)=O)cc3c2n1CC1(CC1)CO3 [Example 64, 1-(1-ethyl-4-fluoro-3-methyl-1H-pyrazole-5-carboxamido)-7,9-dihydrospiro[6-oxa-2,9a-diazabenzo[cd]azulene-8,1′-cyclopropane]-4-carboxamide] | 1.53 | 5.84 | > 12.8
3 | CCn1nc(C)c(F)c1C(=O)Nc1nc2cc(C(N)=O)cc3c2n1CCCO3 [Example 65, 1-(1-ethyl-4-fluoro-3-methyl-1H-pyrazole-5-carboxamido)-8,9-dihydro-7H-6-oxa-2,9a-diazabenzo[cd]azulene-4-carboxamide] | 1.63 | 8.89 | > 11.6
4 | CCn1nc(C)c(F)c1C(=O)Nc1nc2cc(C(N)=O)cc3c2n1CCCN3C [Example 66, 1-(1-Ethyl-4-fluoro-3-methyl-1H-pyrazole-5-carboxamido)-6-methyl-6,7,8,9-tetrahydro-2,6,9a-triazabenzo[cd]azulene-4-carboxamide] | 7.15 | 71.56 | 2.8
5 | CCn1nc(C)cc1C(=O)Nc1nc2cc(C(N)=O)cc3c2n1CC(C)(C)CN3 [Example 67, 1-(1-Ethyl-3-methyl-1H-pyrazole-5-carboxamido)-8,8-dimethyl-6,7,8,9-tetrahydro-2,6,9a-tri azabenzo[cd]azulene-4-carboxamide] | 7.90 | 49.72 | 14.9
6 | CCn1nc(C)cc1C(=O)Nc1nc2cc(C(N)=O)cc3c2n1CC(C)(C)CN3C [Example 68, 1-(1-Ethyl-3-methyl-1H-pyrazole-5-carboxamido)-6,8,8-trimethyl-6,7,8,9-tetrahydro-2,6,9a-triazabenzo[cd]azulene-4-carboxamide] | 9.81 | 67.23 | 4.7
7 | CCN1CC(C)(C)Cn2c(NC(=O)c3cc(C)nn3CC)nc3cc(C(N)=O)cc1c32 [Example 69, 6-Ethyl-1-(1-ethyl-3-methyl-1H-pyrazole-5-carboxamido)-8,8-dimethyl-6,7,8,9-tetrahydro-2,6,9a-triazabenzo[cd]azulene-4-carboxamide] | 7.69 | 74.83 | 7.6
8 | CCn1nc(C)cc1C(=O)Nc1nc2cc(C(N)=O)cc3c2n1C[C@@H](C)CO3 [Example 70, (R)-1-(1-Ethyl-3-methyl-1H-pyrazole-5-carboxamido)-8-methyl-8,9-dihydro-7H-6-oxa-2,9a-diazabenzo[cd]azulene-4-carboxamide] | 2.37 | 10.57 | > 50
9 | CCn1nc(C)cc1C(=O)Nc1nc2cc(C(N)=O)cc3c2n1C[C@H](C)CO3 [Example 71, (S)-1-(1-Ethyl-3-methyl-1H-pyrazole-5-carboxamido)-8-methyl-8,9-dihydro-7H-6-oxa-2,9a-diazabenzo[cd]azulene-4-carboxamide] | 2.97 | 18.10 | > 17.6
10 | CCn1nc(C)c(F)c1C(=O)Nc1nc2cc(C(N)=O)cc3c2n1CC1(COC1)CO3 [Example 72, 1-(1-Ethyl-4-fluoro-3-methyl-1H-pyrazole-5-carboxamido)-7H,9H-6-oxa-2,9a-diazaspiro[benzo[cd]azulene-8,3′-oxetan]-1,2a,2a^1(5a),4-tetraene-4-carboxamide] | 1.24 | 3.27 | > 38.5
